Data taken from patent publication US11730712B2, “Functionalized long-chain hydrocarbon mono- and di-carboxylic acids and derivatives thereof, and their use for the prevention or treatment of disease” (ESPERVITA THERAPEUTICS, INC., priority 2021, dated 2023).

What was measured:
[1] = test system: expanded HSPC / megakaryocytes; assay: Platelet production from expanded HSPC cultured into megakaryocytes; assay type: cell-based; details: added to expanded HSPC at day 0 or day 6, cultured into megakaryocytes for 8 days
Experimental: Compound I-32 (A) and Compound I-1 (B) were added to expanded HSPC at day 0 (FIGS. 25A-25E) as they were cultured into megakaryocytes for 8 days or at day 6 (FIGS. 25F-25J). CD41a cell count (FIG. 25A), CD41aCd42b+ cell count (FIG. 25B), platelet levels (FIG. 25C), CD41a MFI (FIG. 25D) and CD41a FSC cell size (FIG. 25E) were analyzed at day 0. CD41a cell count (FIG. 25F), CD41aCd42b+ cell count (FIG. 25G), platelet levels (FIG. 25H), CD41a MFI (FIG. 25I) and CD41a FSC cell size (FIG. 25J) were analyzed at day 6.

[2] = test system: Hepa1-6 murine hepatoma cells; assay: Cell proliferation assay (presto blue, 72 h); assay type: cell-based, mouse; details: for Hepa1-6 cell proliferation compared to control, compound alone: 100 μM; for Hepa1-6 cell proliferation compared to control, compound alone / inhibition of Hepa1-6 cell proliferation in combination with lenvatinib vs each agent alone / inhibition of Hepa 1-6 cell proliferation in combination with regorafenib vs individual effects / inhibition of Hepa1-6 cell proliferation in combination with sorafenib vs each agent alone: 72 h; for IC50: Mus musculus, Hepa1-6, 72 h, read-out: Hepa1-6 (IC50), anti-proliferation activity; for synergism with lenvatinib (CI), Hepa1-6 cells: all tested concentrations: 1 μM and 0.3 μM to 100 μM and 30 μM; for inhibition of Hepa1-6 cell proliferation in combination with lenvatinib vs each agent alone: compound 100 μM + lenvatinib 30 μM; for inhibition of Hepa 1-6 cell proliferation in combination with regorafenib vs individual effects: compound 100 μM + regorafenib 5 μM; for inhibition of Hepa1-6 cell proliferation in combination with sorafenib vs each agent alone: compound 100 μM + sorafenib 5 μM
Experimental: Cell cultures. Hep3B (ATCC) and Hepa1-6 (ATCC) cells were seeded in 96-well plates at a density of 3000 cells/well with complete media. On day 2, media in each well was aspirated and replaced with 100 μl of fresh complete media and cells were treated with or without Compound I-1, Compound I-32, Compound I1-84, and Compound I-85, in a concentration dependent manner. Then, cells were incubated in an incubator for 72 h. On day 5, 10 μl of presto blue (Invitrogen, cat #A13261) cell viability reagent was added in each 96-well plate and incubated at 37° C. for 1-2 h. After incubation, fluorescence was measured with an excitation/emission wavelength of 560/590 nm.
Proliferation assay. Hep3B (ATCC) and Hepa1-6 (ATCC) cells were seeded in 96-well plates at a density of 3000 cells/well with complete media. On day 2, media in each well was aspirated and replaced with 100 μl of fresh complete media and cells were treated with/without testing compounds in a concentration dependent manner. Then, cells were incubated in an incubator for 72 h. On day 5, 10 μl of presto blue (Invitrogen, cat #A13261) cell viability reagent was added in each 96-well plate and incubated at 37° C. for 1-2 h. After incubation, fluorescence was measured with an excitation/emission wavelength of 560/590 nm. Anti-proliferative combination effects of Compound I-1 or Compound I-32 and regorafenib were determined in Hep3B and Hepa1-6 cells. Drug combination interaction was determined by the Chou-Talalay method (23), which is based on well-known equations for different reaction sequences and mechanisms, and different types of inhibition. These equations provide the theoretical basis for the combination index (CI)-isobologram equation that allows quantitative determination of drug interactions, where CI<1, =1, and >1 indicate synergism, additive effect, and antagonism, respectively. CI is calculated based on in vitro measurements implemented in the Compusyn software (www.combosyn.com), a platform for drug combinations pharmacodynamics with automated simulations. The software calculates CI based on the Fractional Inhibition (Fa), which is the potency expressed by the average effect values for each drug concentrations as determined by in vitro experiments. The dose-effect data entries are utilized for automated computerized analysis by the Compusyn software.
Data entered was obtained by in vitro experiments performed as follows: Hep3B or Hepa 1-6 cells were plated in a 96-well format and cell proliferation rates were determined as described above. Cells were treated with 5 doses of each test agent alone at the following concentrations: compounds of the invention dosed at 1, 5, 10, 50, or 100 μM for both Hep3B and Hepa1-6 cells, regorafenib dosed at 0.015, 0.075, 0.15, 0.75, and 1.5 μM for Hep3B cells or 0.05, 0.25, 0.5, 2.5, 5 μM for Hepa 1-6 cells. […]. Data are shown as Fa-CI plots where CI is the combination index and Fa is fractional inhibition. Results were indicated as mean±standard deviation (SD). All bar diagrams and line graphs were prepared using Graph Pad Prism 8 software. Drug synergy was calculated using the CompuSyn software.
Methods: Hep3B cells (supplied by ATCC) and Hepa1-6 cells (supplied by ATCC) were seeded in 96-well plates at a density of 3000 cells/well with complete media. On day 2, the media in each well was aspirated and replaced with 100 μL of fresh complete media, and the cells were treated in a concentration dependent manner with either Compound I-1, Compound I-32, Compound I-84, Compound I-85, sorafenib, lenvatinib, Compound I-1 in combination with sorafenib. Compound I-1 in combination with lenvatinib, Compound I-32 in combination with sorafenib, or Compound I-32 in combination with lenvatinib. The cells were then incubated in an incubator at 37° C. for 72 h. On day 5, 10 μL of presto blue (Invitrogen, cat #A13261) cell viability reagent was added to each 96-well plate and incubated at 37° C. for 1-2 h. […]

Compound	platelet production [1]	Hepa1-6 cell proliferation compared to control, compound alone [2]	IC50 [2] [µM]	synergism with lenvatinib (CI), Hepa1-6 cells [2]	inhibition of Hepa1-6 cell proliferation in combination with lenvatinib vs each agent alone [2]	inhibition of Hepa 1-6 cell proliferation in combination with regorafenib vs individual effects [2]	inhibition of Hepa1-6 cell proliferation in combination with sorafenib vs each agent alone [2]	synergism with sorafenib (CI), Hepa1-6 cells ([2]; compound and sorafenib: 1 μM and 0.05 μM, 10 μM and 0.25 μM, 50 μM and 2.5 μM, 100 μM and 5 μM)	synergism with sorafenib (CI), Hepa1-6 cells ([2]; all tested concentrations: 1 μM and 0.05 μM to 100 μM and 5 μM)
CC(C)(CCCCc1cccc(CCCCC(C)(C)C(=O)O)c1)C(=O)O [Compound I-32, 6-[3-(5-carboxy-5-methylhexyl)-phenyl]-2,2-dimethylhexanoic acid]	do not significantly affect	inhibited Hepa1-6 cell proliferation compared to control	> 100	synergism	significantly greater inhibition of Hepa1-6 cell proliferation	greater inhibition of cell proliferation compared to their individual effects	significantly greater inhibition of Hepa1-6 cell proliferation	significant synergism	–
CC(C)(CCCCc1ccc(CCCCC(C)(C)C(=O)O)cc1)C(=O)O [Compound I-1, 6-[4-(5-carboxy-5-methylhexyl)-phenyl]-2,2-dimethylhexanoic acid]	do not significantly affect	inhibited Hepa1-6 cell proliferation compared to control	> 100	synergism	significantly greater inhibition of Hepa1-6 cell proliferation	greater inhibition of cell proliferation compared to their individual effects	significantly greater inhibition of Hepa1-6 cell proliferation	–	synergism
